Assays:
Type in all cases: in vivo
[1] = test system: KK^Ay mice; test: Hepatic and muscle glycogen in KK^Ay mice (Example 3); details: 2.0 mg/kg Sc, after 2 weeks, vs model group
From the text: (§1) 60 KK^Ay mice were adaptively bred for 1 week, and then randomly assigned into 6 groups: Model group, Compound (1) group, Compound (2) group, Compound (3) group, Compound (4) group, and metformin group, 10 mice per group. 10 normal C57BL/6 mice were used for the control group. KK^Ay mice were in a high-fat diet, and the control normal mice were in a normal control diet. The control and model groups were hypodermically injected with sterile water, the 6 medicated groups mice were subcutaneously injected with […] Wacao saponins, (Compounds (1), (2), (3) and (4)) respectively, and the positive group was administered metformin by gavage. All mice were administrated at 9 am for 2 weeks and the administration volume is 10 ml/kg BW.
(§2) The body weight, food and water intake of each mouse was measured and recorded weekly throughout the course of the experiment. At the end of the experiment, collected the blood and separated serum, fasting blood glucose, insulin levels and insulin sensitivity index (ISI) were measured or calculated in each group. Liver, skeletal muscles of mice in each group were taken and weighed for detecting glycogen levels of the hepatic and muscles after mice being killed.
(§3) Compound (1), (2), (3) and (4) were respectively dissolved into sterile water, and sterilized with filtration for Sc. to the medication groups. The metformin was dissolved into sterile water for lg. to the positive control group. Control and model groups animals were injected with sterile water (10 ml/kg BW), Sc. All the animals were treated daily at 9 am for 2 weeks (14 days).
(§4) Blood detection: Blood glucose was measured weekly. Overnight fasting glycemia level was measured with One Touch ULTRA Glucometer for the tail blood test. At the end of the experiment, blood serum was collected for measuring levels of fasting blood glucose and insulin, and the insulin sensitivity index (ISI) was calculated. At the same time, hepatic tissues and skeletal muscles of mice were taken out to determine levels of hepatic and muscle glycogen by detection kits.

[2] = test system: KK^Ay mice; test: Effects of Wacao saponins on glycemia in KK^Ay T2DM mice (Example 2)
From the text: (§5) 80 male KK^Ay mice (12 weeks of age, License NO. SCXK (BJ) 2009-0015, Beijing Huafukang Biology Technology Co. Ltd.) and 10 male normal C57BL/6 mice (12 weeks of age, License NO. SCXK (BJ) 2009-0015, Beijing Huafukang Biology Technology Co. Ltd.) were adaptively bred for one week, and then used in the pharmacological experiment.
The animals were housed individually in wood-chip-bedded plastic cages. Germ-free and high-fat diets (Beijing Huafukang Biology Technology Co. Ltd.) were used to feed the KK^Ay mice, and the standard laboratory chows were used to feed normal C57BL/6 mice. All the animals had free access to food and water.
80 KK^Ay mice were adaptively bred for 1 week, and then randomly assigned into 8 groups: Model group, Compound (1) group, Compound (2) group, Compound (3) group, Compound (4) group, Compound (7) group, Compound (8) group and metformin group, 10 mice per group. 10 normal C57BL/6 mice were used as the control group. KK^Ay mice were fed with the high-fat diet, and the control group was fed with the normal control diet. The control and model groups were hypodermically injected with sterile water, 6 medicated groups were hypodermically injected with 6 kinds of Wacao saponins, the Compounds (1), (2), (3), (4), (7) and (8), and the positive group (metformin group) was irrigated per oral. All groups were administrated at 9 am for 2 weeks. The administrating volume is 10 ml/kg BW and the administration dosage is shown in Table3.
All mice of the fasting tail blood glucose level were measured weekly using One Touch ULTRA Glucometer (Life Scan Johnson and Johnson, USA).
Each compound of Wacao saponins was dissolved into sterile water and sterilized with filtration for Sc. The metformin was dissolved into sterile water for lg. The control and model group mice were injected with sterile water, Sc. All the animals were treated at 9 am for 2 weeks.
Overnight fasting tail blood glucose level was measured weekly using One Touch ULTRA Glucometer and measured for twice.
Each group was administrated for 2 weeks (14 days) and then the experiment was terminated.
Results are expressed as means±SD. Statistical analysis were analyzed by using SPSS 10.0 software. Data were evaluated with analysis of variance.

[3] = test system: KK^Ay mice; test: Blood insulin content and insulin sensitivity index (ISI) in KK^Ay mice (Example 3); details: serum, after 2 weeks treatment, vs model group
From the text: as §1
as §2, with “Liver, skeletal muscles of mice in each group were taken and weighed for detecting glycogen levels of the hepatic and muscles after mice being killed.” left out
as §4, with “At the same time, hepatic tissues and skeletal muscles of mice were taken out to determine levels of hepatic and muscle glycogen by detection kits.” left out

[4] = test system: KK^Ay mice; test: Body weight, food and water intake in KK^Ay mice (Example 3); details: vs model group
From the text: as §5, with “60” for “80”, “10 normal” for “10”, “male” for “male normal”, “following” for “pharmacological”
The animals were housed individually in wood-chip-bedded plastic cages. Germ-free and high-fat diets (Beijing Huafukang Biology Technology Co. Ltd.) were used to feed the KK^Ay mice. All the animals had free access to food and water.
as §1, §2, §3
Measurement of food and water intake: 24 hours' food and water intake were measured by gravimetry once a week. It should be paid attention to recycling leakage of small forage into the feed box to ensure the accuracy of food intake.
Determination of body weight: The body weight of mice was measured and recorded once a week.
Results are shown as means±SD. Statistical analysis data were analyzed by using SPSS 10.0 software. Data were evaluated with analysis of variance.

[5] = test system: KK^Ay mice; test: Glycemia in KK^Ay mice during treatment and after withdrawal (Example 3)
From the text: as §5, with “60” for “80”, “10 normal” for “10”, “male” for “male normal”, “following” for “pharmacological”
as §1, §3, §4
Termination of the experiment After administrating mice for 2 weeks (14 days), the experiment was terminated.
This experiment is to observe the anti-hyperglycemia effects of Wacao saponins on KK^Ay mice during and after the period of drug treatment, respectively.

For `COC(=O)C1OC(O[C@H]2CC[C@]3(C)[C@H]4C=CC5[C@@H]6CC(C)(C)CC[C@]6(C(=O)OC6OC(C)C(OC(=O)/C=C\c7ccc(C)cc7)C(OC(C)=O)C6OC6OC(C)C(O)C(O)C6O)[C@H](O)C[C@@]5(C)[C@]4(C)CC[C@H]3[C@]2(C)C=O)C(OC2OC(CO)C(O)C(O)C2O)C(OC2OCC(O)C(O)C2O)C1O` (stereo partly drawn) [Compound (4), sinocrassuloside IX], the muscle glycogen level [1] was “weaker efficacy in raising level of muscle glycogen which had no statistical significant difference compared with that of the model group”, the “glycemia (fasting tail blood glucose), hypoglycemic activity” value ([2]; 2.0 mg/kg BW Sc daily, after 1 week, vs model group) was “then followed by Compound (2), Compound (4), Compound (3) and Compound (7)” and the “anti-hyperglycemia effect, compounds compared with each other” value ([2]; 2.0 mg/kg BW Sc, 2 weeks, ranking) was “followed by Compound (3) and (4) (cis-trans-isomers), and Compound (7)”. The insulin level [3] was “all groups except Compound (4) increased significantly”, the food intake ([4]; after 2 weeks, compounds 2.0 mg/kg Sc, metformin 500 mg/kg lg) was “except the Compound (4) group, mice in all groups showed obvious reduction in food intake” and the water intake ([4]; week 1, 2.0 mg/kg Sc) was “decreased significantly (p<0.05 or p<0.01, vs. model group), except Compound (4) group in week 1”. The “anti-hyperglycemia effect compared with metformin” value ([5]; KK^Ay mice, 2.0 mg/kg Sc vs metformin 500 mg/kg lg) was “all treatment groups except Compound (4) had stronger anti-hyperglycemia effects than that of metformin”, the glycemia level ([5]; KK^Ay mice, after 1 week, compounds 2.0 mg/kg Sc, metformin 500 mg/kg lg, vs model group) was “each treatment group, except the Compound (4) group, showed a significantly decrease” and the “descending rates of blood glucose” value ([5]; T2DM mice, 2 mg/kg, two weeks after subcutaneous injection) was 50%.

Reference: patent US20160324884A1, “TREATMENT OF DIABETES WITH PENTACYCLIC TRITERPENOID SAPONIN COMPOUNDS FROM SZECHUAN MELANDIUM ROOT” (priority 2013, published 2016)
